Laboratory results published in publication PMC8297954 (Frontiers in Microbiology, 2021).
“Also recorded” adds a separate entry of the source. Read-outs that look alike come from different tables or passages of the source.

Experiments:
[1] = system: transmembrane domain of SARS CoV E protein; settings: lipid bilayers ref Torres et al., 2007; cited from earlier work
[2] = system: viral protein U of human immunodeficiency type 1 virus; settings: cited from earlier work
MHV = settings: cited from earlier work
HCoV-229E E protein = settings: cited from earlier work
HCoV-229E = settings: cited from earlier work
MHV E protein = settings: cited from earlier work
SARS CoV 3a protein = settings: Xenopus oocytes ref Schwarz et al., 2014; cited from earlier work

Compound	MTT pRK control (HEK293 cells; human)	effect on viability of control cells at increasing concentrations (HEK293 cells)	inhibition of viral protein U [2]	further results
CCCCC[C@H](O)CC(=O)CCc1ccc(O)c(OC)c1 [6-Gingerol, 6-gingerol]				MTT pRK control (HEK293 cells): neutral
CCCCCCC[C@H](O)CC(=O)CCc1ccc(O)c(OC)c1 [8-Gingerol, 8-gingerol]	50 ↓			
NC12CC3CC(CC(C3)C1)C2 [Amantadine, amantadine, reference compound]				inhibition of wild-type transmembrane peptides [1]: inhibited; MTT pRK control (HEK293 cells): neutral
O=c1cc(-c2ccc(O)cc2)oc2cc(O)cc(O)c12 [Apigenin, apigenin]	5–10↑ 20–50↓	cytotoxic		concentrations that were cytotoxic / induced cell death (HEK293 cells; human): 20 to 50 µM
O=C(O[C@@H]1Cc2c(O)cc(O)cc2O[C@@H]1c1cc(O)c(O)c(O)c1)c1cc(O)c(O)c(O)c1 [EGCG, epigallocatechin gallate]	5–50 ↑			
O=c1c(-c2ccc(O)cc2)coc2cc(O)cc(O)c12 [Genistein, genistein]	20–50 ↑	proliferative	inhibits; also recorded: able to inhibit	
NC(N)=NC(=O)c1nc(Cl)c(N2CCCCCC2)nc1N [HMA, 5-(N,N-hexamethylene)amiloride]	10–50 ↓	cytotoxic		inhibition of virus replication (MHV): inhibits replication; inhibition of E protein ion channel conductance (HCoV-229E E protein): inhibits; inhibition of virus replication (HCoV-229E): inhibits replication; inhibition of E protein ion channel conductance (MHV E protein): inhibits
O=c1c(O)c(-c2ccc(O)cc2)oc2cc(O)cc(O)c12 [Kaempferol, kaempferol]	5–50 ↑	proliferative	not	inhibition of 3a ion channel (SARS CoV 3a protein): blocks
O=C1C[C@@H](c2ccc(O)cc2)Oc2cc(O)cc(O)c21 [Naringenin, naringenin]	10–50 ↑			
COc1ccc(-c2cc(=O)c3c(OC)c(OC)c(OC)c(OC)c3o2)cc1OC [Nobiletin, nobiletin]	5–50 ↑			
O=c1c(O)c(-c2ccc(O)c(O)c2)oc2cc(O)cc(O)c12 [Quercetin, quercetin]	10–50 ↑	proliferative	not	
Oc1ccc(/C=C/c2cc(O)cc(O)c2)cc1 [Resveratrol, resveratrol]				MTT pRK control (HEK293 cells): neutral
CC(N)C12CC3CC(CC(C3)C1)C2 (stereo not shown) [Rimantadine, rimantadine, reference compound]				MTT pRK control (HEK293 cells): neutral
O=c1c(O[C@@H]2O[C@@H](CO)[C@H](O)[C@H]2O)c(-c2ccc(O)cc2)oc2cc(O)cc(O)c12 [juglanin]				inhibition of 3a ion channel (SARS CoV 3a protein): most efficient
(–)epicatechin			not	
(–)epigallocatechin			not	
